{
  "source": "patent US20230117205A1",
  "about": "“B7-H4 ANTIBODY-DRUG CONJUGATES FOR THE TREATMENT OF CANCER” (SEAGEN INC., priority 2021, published 2023)",
  "key": {"[1]": {"assay": "Non-human primate (NHP) and rat tox study", "assay_type": "in vivo, rat and cynomolgus monkey", "text": "The nonclinical safety profile of SGN-B7H4V supports the proposed initial clinical development plan. […] The hematologic toxicity is consistent with the mechanism of action (MOA) for MMAE."}, "[2]": {"test_system": "MDA-MB-468 xenograft tumors", "assay": "Gene ontology (GO) term analysis of treated MDA-MB-468 xenograft tumors", "assay_type": "in vivo, NSG mice", "protocol": "For RNAseq, RNA was extracted from tumors and library preparation for […] sequencing was performed using PolyA selection. RNA was sequenced using the Illumina HiSeq platform 2×150 bp configuration. RNA extraction, library preparation, and sequencing were performed by GENEWIZ. Adaptors were trimmed using cutadapt version 1.16, reads were aligned to a composite (GRCh38(h38)/GRCm38(mm10)) genome using STAR version 2.5.2. Transcripts and genes were quantitated via RSEM version 1.2.31. Quantitative and statistical differences were determined between groups of samples using DESeq2 version 1.28.1. GO term and gene set enrichment analysis was performed with clusterProfiler version 3.16.1, msigdbr version 7.1.1, AnnotationDbi version 1.50.3, org.Mm.eg.db version 3.11.4, and org.Hs.eg.db version 3.11.4. […] Only GO terms with a p-value and q-value of 0.05 or less were retained. Figures were replotted using GraphPad Prism. The raw fastq files as well as the mapped BAM files are stored on the Seagen linux storage location: /fc1/jobs/research/RNASeq/."}, "SKBR3": {"test_system": "SKBR3", "assay": "ADCP with primary monocytes/macrophages", "assay_type": "cell-based, human", "settings": "2 independent donors", "protocol": "The B7-H4-expressing cell line SKBR3 and primary monocytes/macrophages were used to evaluate SGN-B7H4V-mediated ADCP. […] Phagocytosis of opsonized cells was assessed by flow cytometry.\nSKBR3 tumor cells were fluorescently labeled with PKH26 (PKH26 Red Fluorescent Cell Membrane Labeling Kit, Sigma-Aldrich #PKH26GL-1KT), according to manufacturer instructions: SKBR3 cells were harvested with Versene (Gibco #15040-066) for 10 minutes and washed once with PBS. Cell were resuspended in 1 mL Diluent C (included in the PKH26 Red Fluorescent Cell Membrane Labeling Kit, Sigma-Aldrich #PKH26GL-1KT). In a separate tube, 1 mL Diluent C was mixed with 4 μL PKH26 dye by pipetting up and down. The dye solution was transferred to resuspended cells, quickly mixed by pipetting up and down several times, and incubated at room temperature for 5 minutes. Labeling reaction was stopped by adding 2 mL FBS (0.05-0.2 EU/ml Endotoxin, R&D Systems #S11550H). Cells were then washed once with RPMI 1640 (Gibco #11875-093) containing 10% FBS. Cells were resuspended in PBS at concentration of 0.8×10^6 cells/mL and transferred (300 μL/well) to a 96-well U-bottom plate (Falcon #353227). […] Phagocytosis is reported as the PKH26 geometric mean fluorescence intensity (gMFI) of gated CD14+/CD45+ cells analyzed using Flowjo. […]"}},
  "data": [
    {"substance": "SGN-B7H4V: ADC of fully human IgG1 anti-B7-H4 mAb conjugated to monomethyl auristatin E (MMAE) via a protease-cleavable valine-citrulline linker (vedotin)", "values": [
      {"measurement": "primary target organs of toxicity", "setting": "[1]; pivotal GLP and non-GLP studies", "result": "hematological system, testes, and ovaries"},
      {"measurement": "tolerability", "setting": "[1]; rat and cynomolgus monkey", "result": "tolerated in the rat and cynomolgus monkey"},
      {"measurement": "human gene categories related to apoptosis/programmed cell death pathways", "setting": "[2]; compared to B7H41001 mAb-DM1", "result": "elevated"},
      {"measurement": "mouse immune-related GO terms", "setting": "[2]; compared to B7H41001 mAb-DM1", "result": "increased"},
      {"measurement": "human gene categories related to the immune response", "setting": "[2]; compared to B7H41001 mAb-DM4", "result": "elevated"},
      {"measurement": "mouse immune-related gene categories", "setting": "[2]; compared to B7H41001 mAb-DM4", "result": "elevated"},
      {"measurement": "ADCP activity", "setting": "SKBR3", "result": "ADCP activity above that seen with the positive control"}
    ]}
  ]
}
